Reference: US10173999B2, “Cyclic amine derivative and pharmaceutical use thereof” (Toray Industries, Inc., priority 2015, dated 2019)
Structures can show the parent of a compound that is named as a salt.

Experiments:
[1] = Pharmacokinetics (PK) test in cynomolgus monkeys; type: in vivo, cynomolgus monkey
Protocol: Cynomolgus monkeys (4 to 6 years old, male) were raised under the conditions of voluntary intake of solid food (Oriental Yeast Co., Ltd) and tap water and fasted from the evening of the day before initiation of administration and subjected to an experiment. Note that blood was sampled at 4 hours after administration (on and after 16:00), and thereafter feeding was restarted.
Dosing solution for intravenous administration was injected through the saphenous vein by use of a syringe needle (attached to a syringe barrel). The oral administration into the stomach was compulsively carried out by inserting a catheter into the nasal cavity.
The blood sampled was centrifuged at 4° C. and 1800×g for 15 minutes to obtain the plasma. The plasma thus obtained was stored at about −80° C. until use in preparation of analysis samples. The plasma obtained from a cynomolgus monkey to which a test compound was administrated, is referred to as a plasma sample; whereas the plasma obtained from a cynomolgus monkey to which a test compound was not administered, is referred to as the blank plasma.
(§1) The resulting solution was vortexed and cooled at 4° C. for 10 minutes. A sample for a calibration curve was prepared by adding a standard solution for a calibration curve to the blank plasma and subjecting the resulting mixture to the same treatment. After cooling, each of the samples was spun at 4° C. and 2000 rpm for 10 minutes by a centrifuge (Hitachi Koki Co., Ltd.). The resulting supernatant was used as a sample for LC/MS/MS analysis.
as §1, with “diluted 10 fold with 70 vol % acetonitrile containing 0.1 vol % formic acid and subjected” for “used”, “analysis. The LC/MS/MS analysis conditions were as follows:” for “analysis.”
The test-compound concentrations in the plasma at each sampling time point in the case of intravenous administration or oral administration were calculated and PK analysis was carried out for individual monkeys. PK parameters were calculated by using WinNonlin (Pharsight), in accordance with an analysis independent of a model (intravenous administration: Bolus IV Administration, oral administration: Extravascular Administration; Weight=1/y in both administrations). Furthermore, bioavailability (BA) was calculated based on the following Expression (3) by dividing AUC0-∞iv (time 0 to ∞) at the time of the intravenous administration and AUC0-∞po (time 0 to ∞) at the time of the oral administration by respective dose values to obtained as normalized values. Bioavailability (BA)=(AUC0-∞,po/dose)/(AUC0-∞,iv/dose) (3)

[2] = Stability test in monkey liver microsomes; type: in vitro ADME; details: pH 7.4; monkey liver microsomes 0.5 mg/mL, test compound 2 μmol/L, 37° C., 0-30 min; read-out: Hepatic intrinsic clearance, Monkey
Protocol: (§2) Experiment was performed using the compound of Example 11, Comparative Example 1 or Comparative Example 6 as a test compound and human liver microsomes (from Xenotech), monkey liver microsomes (from Xenotech), dog liver microsomes (from Xenotech) or mouse liver microsomes (from Xenotech) as the liver microsomes.
(§3) The reagents to be used in the stability test in liver microsomes were prepared as follows. A D-glucose 6-phosphate disodium salt (hereinafter referred to as G6P) was dissolved with distilled water to prepare an aqueous solution of G6P (100 mmol/L). Glucose 6-phosphate dehydrogenase (1000 units) from Yeast (hereinafter referred to as G6PDH) was dissolved with distilled water (5 mL) to prepare an aqueous solution of G6PDH (200 units/mL). MgCl2 was dissolved with distilled water to prepare an aqueous solution of MgCl2 (100 mmol/L). […]
(§4) With respect to the chromatogram of each well obtained by LC/MS analysis or LC/MS/MS analysis, the test compound residual ratio (%) at each reaction time t (min) was calculated based on the peak area at the reaction time of 0 minute as 100%. […]

[3] = Stability test in human liver microsomes; type: in vitro ADME; details: pH 7.4; human liver microsomes 0.5 mg/mL, test compound 2 μmol/L, 37° C., 0-30 min; read-out: Hepatic intrinsic clearance, Human
Protocol: as §2, §3, §4

| Structure (SMILES) | mean plasma concentration after administration compared with Comparative Example 2 ([1]; cynomolgus monkeys, intravenous and oral 1 mg/kg, all time points) | bioavailability ([1]; male, plasma, cynomolgus monkey, 1 mg/kg oral vs 1 mg/kg intravenous, read-out: BA (bioavailability)) | clearance ([1]; male, plasma, cynomolgus monkey, intravenous administration 1 mg/kg, single, read-out: CLtot (total body clearance) (converted)) | AUC(0-inf) ([1]; male, plasma, cynomolgus monkey, oral administration 1 mg/kg, single) | Cmax ([1]; male, plasma, cynomolgus monkey, oral administration 1 mg/kg, single, read-out: Cmax (maximum plasma concentration)) | half-life ([1]; male, plasma, cynomolgus monkey, oral administration 1 mg/kg, single, read-out: t1/2 (elimination half-life in the plasma) (converted)) | microsomal CLint at 2 μmol/L [2] | microsomal CLint at 2 μmol/L [3] |
| --- | --- | --- | --- | --- | --- | --- | --- | --- |
| CN(C)C1CCN(C(=O)C[C@H](O)c2nccn2C)CC1 [Example 11, (S)-1-(4-(dimethylamino)piperidin-1-yl)-3-hydroxy-3-(1-methyl-1H-imidazol-2-yl)propan-1-one] | higher | 52.6% | 3.25 mL/min/kg | 2730 ng·h/mL | 279 ng/mL | 7.55 h |  |  |
| CC(C)n1ccnc1CCC(=O)N1CCC(N(C)C)CC1 [Comparative Example 6, 1-(4-(dimethylamino)piperidin-1-yl)-3-(1-isopropyl-1H-imidazol-2-yl)propan-1-one hydrochloride] |  |  |  |  |  |  | 6 µL/min/mg |  |
| CN(C)C1CCN(C(=O)CCc2nccn2C)CC1 [Comparative Example 1, 1-(4-(dimethylamino)piperidin-1-yl)-3-(1-methyl-1H-imidazol-2-yl)propan-1-one hydrochloride] |  |  |  |  |  |  | 2 µL/min/mg | 1 µL/min/mg |
